Test results taken from ChEMBL document CHEMBL1201862, “PubChem BioAssay data set” (2004).
Activity calls are given as the source filed them.

What was measured:
[1] = molecular target: T1, Ubiquitin-conjugating enzyme E2 N (Homo sapiens, UniProt P61088); type: functional;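 also: Dose-response confirmation in a TR-FRET assay detecting UBC13-driven polyubiquitin chain formation, inhibition measured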
T1 sequence (P61088 whole entry): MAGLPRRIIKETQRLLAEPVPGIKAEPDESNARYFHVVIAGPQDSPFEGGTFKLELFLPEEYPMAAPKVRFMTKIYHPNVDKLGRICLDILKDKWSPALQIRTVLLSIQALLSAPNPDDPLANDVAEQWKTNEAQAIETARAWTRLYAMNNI

[2] = molecular target: T2, Corticotropin-releasing factor receptor 2/Corticotropin-releasing factor-binding protein (Homo sapiens, UniProt P24387+Q13324); test: Dose Response confirmation of uHTS hits for small molecule antagonists of the CRF-binding protein and CRF-R2 receptor complex.; type: functional; settings: read-out: IC50_Mean
T2 sequence (Q13324 whole entry): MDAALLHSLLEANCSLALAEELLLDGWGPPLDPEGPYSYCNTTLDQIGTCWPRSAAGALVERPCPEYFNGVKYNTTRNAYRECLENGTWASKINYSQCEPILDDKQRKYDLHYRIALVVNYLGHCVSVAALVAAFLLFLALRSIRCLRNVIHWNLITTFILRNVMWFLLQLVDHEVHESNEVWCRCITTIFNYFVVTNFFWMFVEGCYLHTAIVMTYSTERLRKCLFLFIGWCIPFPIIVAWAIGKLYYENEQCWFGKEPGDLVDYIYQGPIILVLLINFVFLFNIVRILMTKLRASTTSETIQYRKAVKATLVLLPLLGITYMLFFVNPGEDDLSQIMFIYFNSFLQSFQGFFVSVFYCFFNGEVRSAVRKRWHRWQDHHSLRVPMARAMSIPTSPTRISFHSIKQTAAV
T2 sequence (P24387 whole entry): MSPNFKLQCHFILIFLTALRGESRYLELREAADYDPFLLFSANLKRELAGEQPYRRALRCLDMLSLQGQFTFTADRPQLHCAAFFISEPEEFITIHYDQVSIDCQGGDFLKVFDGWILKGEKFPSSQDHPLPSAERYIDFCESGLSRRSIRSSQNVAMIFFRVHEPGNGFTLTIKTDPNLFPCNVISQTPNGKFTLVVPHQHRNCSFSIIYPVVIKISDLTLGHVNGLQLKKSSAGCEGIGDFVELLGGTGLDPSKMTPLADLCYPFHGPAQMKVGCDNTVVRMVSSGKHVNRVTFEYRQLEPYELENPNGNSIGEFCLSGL

[3] = molecular target: T2, Corticotropin-releasing factor receptor 2/Corticotropin-releasing factor-binding protein; test: activators of CRF receptor 2 with binding protein – uHTS hits, confirmation (AID 602473); type: functional; settings: read-out: EC50_Mean
Fatty acid synthase [4] = molecular target: T3, Fatty acid synthase (Homo sapiens, UniProt P49327); test: inhibition of human FAS-TE enzyme activity – biochemical, endpoint fluorescence intensity, uHTS hits, dose response (AID 624327); type: functional;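 also: fluorescence from hydrolysis of an O-methyl fluorescein acyl ester substrate by the enzyme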
T3 sequence (P49327 whole entry): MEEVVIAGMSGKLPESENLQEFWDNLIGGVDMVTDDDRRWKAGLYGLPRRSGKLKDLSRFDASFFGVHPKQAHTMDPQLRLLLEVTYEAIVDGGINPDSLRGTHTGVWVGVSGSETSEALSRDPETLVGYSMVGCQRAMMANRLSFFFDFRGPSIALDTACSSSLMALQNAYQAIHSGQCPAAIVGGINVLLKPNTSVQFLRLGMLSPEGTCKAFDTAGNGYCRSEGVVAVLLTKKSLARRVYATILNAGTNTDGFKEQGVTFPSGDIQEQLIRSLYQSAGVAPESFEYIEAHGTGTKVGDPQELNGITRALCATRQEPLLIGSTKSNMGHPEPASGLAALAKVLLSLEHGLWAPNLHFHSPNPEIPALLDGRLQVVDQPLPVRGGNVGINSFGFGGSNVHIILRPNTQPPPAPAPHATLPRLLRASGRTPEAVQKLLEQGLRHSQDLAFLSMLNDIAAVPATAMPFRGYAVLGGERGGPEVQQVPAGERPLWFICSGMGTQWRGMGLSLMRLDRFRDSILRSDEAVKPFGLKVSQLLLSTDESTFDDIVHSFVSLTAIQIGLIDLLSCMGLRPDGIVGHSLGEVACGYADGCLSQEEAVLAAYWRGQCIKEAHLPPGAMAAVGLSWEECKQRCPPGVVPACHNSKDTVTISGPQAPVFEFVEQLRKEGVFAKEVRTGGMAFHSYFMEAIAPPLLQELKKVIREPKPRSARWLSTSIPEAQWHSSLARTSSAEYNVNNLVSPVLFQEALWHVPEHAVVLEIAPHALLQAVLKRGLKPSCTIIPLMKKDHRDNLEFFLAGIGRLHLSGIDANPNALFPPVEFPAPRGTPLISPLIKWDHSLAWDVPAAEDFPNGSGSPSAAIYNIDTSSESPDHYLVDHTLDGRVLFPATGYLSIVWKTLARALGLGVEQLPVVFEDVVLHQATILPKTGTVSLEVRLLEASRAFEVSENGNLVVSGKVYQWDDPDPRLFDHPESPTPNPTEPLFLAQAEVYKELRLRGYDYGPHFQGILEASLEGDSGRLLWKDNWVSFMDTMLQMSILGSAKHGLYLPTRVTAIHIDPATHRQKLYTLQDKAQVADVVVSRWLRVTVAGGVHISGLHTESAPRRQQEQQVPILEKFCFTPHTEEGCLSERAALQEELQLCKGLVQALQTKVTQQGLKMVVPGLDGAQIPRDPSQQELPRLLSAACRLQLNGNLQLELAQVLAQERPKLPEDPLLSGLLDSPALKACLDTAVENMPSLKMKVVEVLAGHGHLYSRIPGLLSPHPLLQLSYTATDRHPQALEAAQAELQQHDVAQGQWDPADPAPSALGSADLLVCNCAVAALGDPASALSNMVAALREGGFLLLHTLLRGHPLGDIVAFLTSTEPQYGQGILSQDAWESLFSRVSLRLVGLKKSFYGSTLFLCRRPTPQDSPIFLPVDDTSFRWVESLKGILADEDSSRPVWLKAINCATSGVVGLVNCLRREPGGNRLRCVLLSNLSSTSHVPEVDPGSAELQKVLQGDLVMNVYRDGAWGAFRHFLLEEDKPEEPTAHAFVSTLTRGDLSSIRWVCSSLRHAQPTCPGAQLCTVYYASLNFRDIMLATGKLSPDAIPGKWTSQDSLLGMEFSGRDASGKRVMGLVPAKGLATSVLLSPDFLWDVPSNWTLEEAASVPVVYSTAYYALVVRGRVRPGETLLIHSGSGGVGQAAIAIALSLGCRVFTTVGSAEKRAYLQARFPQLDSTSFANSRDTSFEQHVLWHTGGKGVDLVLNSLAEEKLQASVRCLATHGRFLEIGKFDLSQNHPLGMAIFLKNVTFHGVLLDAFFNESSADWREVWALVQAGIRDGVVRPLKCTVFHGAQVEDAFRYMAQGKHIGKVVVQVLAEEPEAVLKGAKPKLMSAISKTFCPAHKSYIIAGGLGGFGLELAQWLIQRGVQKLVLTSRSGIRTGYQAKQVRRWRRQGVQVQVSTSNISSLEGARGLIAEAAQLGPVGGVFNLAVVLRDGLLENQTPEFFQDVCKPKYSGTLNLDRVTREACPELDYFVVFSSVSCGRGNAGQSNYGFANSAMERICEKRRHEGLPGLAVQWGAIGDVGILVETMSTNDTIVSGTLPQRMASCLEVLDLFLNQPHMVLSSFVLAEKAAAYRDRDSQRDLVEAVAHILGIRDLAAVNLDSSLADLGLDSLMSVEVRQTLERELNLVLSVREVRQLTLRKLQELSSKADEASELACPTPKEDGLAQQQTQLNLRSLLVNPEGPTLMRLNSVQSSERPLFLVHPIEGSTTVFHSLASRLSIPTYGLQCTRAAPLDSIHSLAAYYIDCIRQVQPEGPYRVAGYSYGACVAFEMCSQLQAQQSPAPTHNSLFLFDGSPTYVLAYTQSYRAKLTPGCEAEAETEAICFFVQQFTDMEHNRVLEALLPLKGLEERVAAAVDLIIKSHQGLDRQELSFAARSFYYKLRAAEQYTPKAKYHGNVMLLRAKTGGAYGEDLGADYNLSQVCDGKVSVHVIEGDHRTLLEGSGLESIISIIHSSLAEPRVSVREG

Fatty acid synthase [5] = molecular target: T3, Fatty acid synthase; test: inhibition of human FAS-TE enzyme activity – biochemical, kinetic fluorescence intensity, dose response (AID 624326); type: functional;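 also: rate of fluorescence rise from hydrolysis of a fluorogenic O-methyl fluorescein ester substrate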
[6] = HIV-1 AD8 envelope cell-cell fusion blockers – cherry-pick, dose response (AID 652062); type: functional, cell-based;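 also: luciferase signal from cell-cell fusion driven by HIV-1 clade B AD8 Env; potency is for inhibitors of fusion seen as a drop in luminescence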
Streptococcus = test: GAS UMAA2166 growth inhibition – luminescence, BacTiterGlo, counter-screen for streptokinase expression inhibitor project, dose response (AID 1915); type: functional, organism-based;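 also: potency for reduction of bacterial viability or growth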
[7] = molecular target: T4, Polyadenylate-binding protein 1 (Homo sapiens, UniProt P11940); test: MLLE domain peptide-binding blockers, IC50 – biochemical, fluorescence polarization, FITC-PAM2 peptide, dose response (AID 602259); type: functional; settings: read-out: IC50_Mean
T4 sequence (P11940 whole entry, the tested form may be a part): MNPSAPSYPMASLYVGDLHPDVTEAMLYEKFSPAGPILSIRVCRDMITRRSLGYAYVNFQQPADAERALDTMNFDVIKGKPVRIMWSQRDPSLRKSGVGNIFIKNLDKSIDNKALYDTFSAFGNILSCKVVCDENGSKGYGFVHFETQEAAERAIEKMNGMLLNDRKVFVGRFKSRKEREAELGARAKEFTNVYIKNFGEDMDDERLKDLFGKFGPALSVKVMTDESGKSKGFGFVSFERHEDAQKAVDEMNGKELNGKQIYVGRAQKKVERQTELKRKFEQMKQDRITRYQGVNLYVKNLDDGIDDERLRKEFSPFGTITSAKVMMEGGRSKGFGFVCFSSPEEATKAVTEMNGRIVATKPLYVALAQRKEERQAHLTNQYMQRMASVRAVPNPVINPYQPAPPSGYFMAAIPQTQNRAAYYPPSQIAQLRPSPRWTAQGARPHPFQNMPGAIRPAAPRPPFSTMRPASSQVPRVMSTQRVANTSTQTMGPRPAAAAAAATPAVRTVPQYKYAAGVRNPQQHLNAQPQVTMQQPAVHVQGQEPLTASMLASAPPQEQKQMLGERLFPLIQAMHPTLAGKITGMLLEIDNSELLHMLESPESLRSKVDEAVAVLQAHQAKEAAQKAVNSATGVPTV

Streptokinase A = molecular target: T5, Streptokinase A (Streptococcus pyogenes serotype M1, UniProt P10520); test: viability-normalized secreted streptokinase activity reduction – plasminogen activation absorbance, OD405, dose response (AID 1914); type: functional, Streptococcus pyogenes M1 GAS;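 also: secreted streptokinase activity via plasminogen activation per viability signal from cell pellet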
T5 sequence (P10520 whole entry): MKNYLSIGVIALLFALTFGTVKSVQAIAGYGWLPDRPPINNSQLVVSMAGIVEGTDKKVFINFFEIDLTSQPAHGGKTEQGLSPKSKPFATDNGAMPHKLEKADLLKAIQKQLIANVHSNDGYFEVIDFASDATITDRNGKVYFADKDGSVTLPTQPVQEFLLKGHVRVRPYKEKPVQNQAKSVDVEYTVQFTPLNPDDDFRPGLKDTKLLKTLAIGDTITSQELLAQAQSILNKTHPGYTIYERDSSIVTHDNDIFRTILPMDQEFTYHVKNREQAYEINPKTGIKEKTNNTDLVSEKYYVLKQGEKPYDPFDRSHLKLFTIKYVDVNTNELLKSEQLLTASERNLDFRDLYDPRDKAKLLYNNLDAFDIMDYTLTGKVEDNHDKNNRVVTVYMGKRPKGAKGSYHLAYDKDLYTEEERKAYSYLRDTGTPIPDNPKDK

[8] = molecular target: T4, Polyadenylate-binding protein 1; test: MLLE binding blockers, Cy5 peptide tracer – biochemical, fluorescence polarization, Cy5-PAM2 peptide, secondary, miRNA deadenylation inhibitor project, dose response (AID 602260); type: functional; settings: read-out: IC50_Mean
[9] = tested on: Streptococcus sp. 'group A'; test: Streptococcus pyogenes SK(-)GAS viability under kanamycin – luminescence, BacTiterGlo, confirmation, counter-screen for streptokinase expression inhibitor project, dose response (AID 1900); type: functional, organism-based
Protein skinhead-1 = molecular target: T6, Protein skinhead-1 (Caenorhabditis elegans, UniProt P34707); type: functional
T6 sequence (P34707 whole entry): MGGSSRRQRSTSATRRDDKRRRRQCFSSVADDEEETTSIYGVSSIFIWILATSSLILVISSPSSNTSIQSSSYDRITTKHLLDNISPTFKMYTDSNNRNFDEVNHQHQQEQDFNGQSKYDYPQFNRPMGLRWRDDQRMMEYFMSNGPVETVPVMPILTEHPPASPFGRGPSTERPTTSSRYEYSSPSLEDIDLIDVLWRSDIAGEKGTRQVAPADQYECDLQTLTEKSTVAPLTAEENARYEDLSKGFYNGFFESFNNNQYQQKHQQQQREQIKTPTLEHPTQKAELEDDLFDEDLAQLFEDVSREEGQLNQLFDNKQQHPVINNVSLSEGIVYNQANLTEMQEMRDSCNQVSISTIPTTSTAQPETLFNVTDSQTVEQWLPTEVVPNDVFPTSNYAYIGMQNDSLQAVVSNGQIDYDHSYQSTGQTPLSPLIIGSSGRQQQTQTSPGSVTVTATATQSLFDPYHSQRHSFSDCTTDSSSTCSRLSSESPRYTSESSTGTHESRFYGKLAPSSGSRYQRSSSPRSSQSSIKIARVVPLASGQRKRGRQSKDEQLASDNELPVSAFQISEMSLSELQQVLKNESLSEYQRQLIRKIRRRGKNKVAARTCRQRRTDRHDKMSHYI

With `Cc1ccc(S(=O)(=O)N2CCCC(C(=O)NNCC(=O)Nc3cc(F)ccc3F)C2)cc1` (stereo not drawn) the IC50 [1] was > 20 µM (inactive).

With `N#C/C(=C\c1cccn1-c1ccccc1)C(=O)NC1CCCCC1` the IC50 [2] was > 47.1 µM (inactive) and the EC50 [3] was > 53 µM (inactive).

For `O=C(/C=C/c1cc([N+](=O)[O-])ccc1OC(F)F)NCc1ccc(Cl)cc1`, the IC50 (Fatty acid synthase [4]) was 0.351 µM (active) and the IC50 (Fatty acid synthase [5]) was 0.413 µM (active).

In the case of `COc1ccc(NS(=O)(=O)c2ccc3c(c2)OCCO3)cc1OC`, the AC50 [6] is reported as 7.24 µM (active).

In the case of `N#Cc1ccc(CSc2ccc(S(=O)(=O)N3CCCC3)cn2)cc1`, the IC50 (Fatty acid synthase [4]) is reported as 8.8 µM (active) and the IC50 (Fatty acid synthase [5]) is reported as 6.67 µM (active).

With `COc1ccc(N=C(S)NC(NC(=O)c2ccc(Cl)cc2Cl)C(Cl)(Cl)Cl)c([N+](=O)[O-])c1` (stereo not drawn) the EC50 (Streptococcus) was > 150 µM (not active), the IC50 [7] was > 66 µM (inactive) and the EC50 (Streptokinase A) was 20.9 µM (active). The IC50 [8] was > 66 µM (inactive) and the EC50 [9] was 1.22 µM (active).

For `Cc1c(OCC(=O)NCCN2CCOCC2)ccc2c3c(c(=O)oc12)CCC3`, the IC50 [2] was > 47.1 µM (inactive) and the EC50 [3] was > 53 µM (inactive).

For `CCCn1nc(C(=O)Nc2cc(S(=O)(=O)Nc3ccc(OC)cc3)ccc2O)c2ccccc2c1=O`, the IC50 [2] was > 47.1 µM (inactive) and the EC50 [3] was > 53 µM (inactive).

In the case of `Cn1nc(C(=O)O)c(=O)n(C)c1=O`, the IC50 [7] is reported as > 66 µM (inactive) and the IC50 [8] is reported as > 66 µM (inactive).

For `Cc1nnc(NC(=O)CSc2nnc(Cc3ccccc3)n2-c2ccccc2)s1`, the IC50 [2] was > 47.1 µM (inactive) and the EC50 [3] was > 53 µM (inactive).

With `Cc1ccc(-n2ccnc(SCC(=O)NC3CCCCC3)c2=O)cc1F` the IC50 [7] was > 66 µM (inactive) and the IC50 [8] was > 66 µM (inactive).

For `Cc1c(C)n(C)c2ccc(C(=O)NCCCN(C)C3CCCCC3)cc12`, the IC50 (Protein skinhead-1) was > 100 µM (inactive).

For `O=C(CC(NC(=O)OCc1ccccc1)C(=O)OCc1ccccc1)OCc1ccccc1` (stereo not drawn), the IC50 [2] was > 47.1 µM (inactive) and the EC50 [3] was > 53 µM (inactive).

With `CCCCCC(=O)OCc1ccc(C2=CC(=O)CC(C)(C)C2=O)cc1` the IC50 (Fatty acid synthase [4]) was 7.22 µM (active) and the IC50 (Fatty acid synthase [5]) was 6.78 µM (active).

With `COc1cccc(NC(=O)COc2c(F)c(F)c(C(F)(F)F)c(F)c2F)c1` the IC50 (Fatty acid synthase [4]) was 12.2 µM (active) and the IC50 (Fatty acid synthase [5]) was 10.5 µM (active).

With `COc1ccccc1NC(=O)c1c(/N=C/c2c(O)ccc3ccccc23)cnn1C` the IC50 [1] was > 20 µM (inactive).

With `COc1cc(/C=N/c2c(C)cc(C)cc2C)ccc1OC(C)=O` the IC50 [2] was > 47.1 µM (inactive) and the EC50 [3] was > 53 µM (inactive).

With `COCC(=O)Nc1ccc2c(c1)C(=O)N(C)C[C@@H](OC)[C@@H](C)CN(C)[C@H](C)CO2` the AC50 [6] was 14.8 µM (active).

With `O=C(CN(c1ccc(Cl)cc1)S(=O)(=O)c1ccccc1)N/N=C/c1ccco1` the IC50 (Fatty acid synthase [4]) was 10.8 µM (active) and the IC50 (Fatty acid synthase [5]) was 6.94 µM (active).

In the case of `Cc1ccc2nc(N=C(N)NC(=O)NC3CCCCC3)nc(C)c2c1`, the IC50 [1] is reported as > 20 µM (inactive) and the EC50 (Streptokinase A) is reported as 52.7 µM (active).
